Results taken from patent US20110195427A1, “SYSTEMS AND METHODS FOR DETECTING PREGNANCY” (priority 2010, published 2011).
Several values for one entry are separate records, joined by “and”; a condition that tells them apart may be missing. Identical values can stand only once. Like-named read-outs stand apart in the source and are kept apart here.

T1: α-amylase (Homo sapiens, UniProt P0DUB6)
T1 sequence (P0DUB6 16-511): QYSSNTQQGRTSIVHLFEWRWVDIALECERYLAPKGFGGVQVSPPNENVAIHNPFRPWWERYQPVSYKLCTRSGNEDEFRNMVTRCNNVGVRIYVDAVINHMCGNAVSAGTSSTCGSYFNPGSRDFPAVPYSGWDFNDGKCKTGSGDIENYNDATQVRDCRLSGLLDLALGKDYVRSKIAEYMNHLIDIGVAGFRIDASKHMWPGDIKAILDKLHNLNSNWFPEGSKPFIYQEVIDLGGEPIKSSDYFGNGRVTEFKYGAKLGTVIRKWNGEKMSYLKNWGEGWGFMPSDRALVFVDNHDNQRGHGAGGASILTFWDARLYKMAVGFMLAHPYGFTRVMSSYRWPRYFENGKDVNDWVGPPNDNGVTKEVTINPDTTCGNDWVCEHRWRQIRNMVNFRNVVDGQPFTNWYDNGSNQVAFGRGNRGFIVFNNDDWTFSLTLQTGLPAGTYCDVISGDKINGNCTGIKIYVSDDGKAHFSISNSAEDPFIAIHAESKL

B1: Soybeans: primary soybean protease inhibitor, 20.7-22.3 kDa (protein, UniProt P01070 25-205, looked up)
Trypsin inhibitor A: DFVLDNEGNPLENGGTYYILSDITAFGGIRAAPTGNERCPLTVVQSRNELDKGIGTIISSPYRIRFIAEGHPLSLKFDSFAVIMLCVGIPTEWSVVEDLPEGPAVKIGENKDAMDGWFRLERVSDDEFNNYKLVFCPQQAEDDKCGDIGISIDHDDGTRRLVVSKNKPLVVQFQKLDKESL

How the values were obtained:
[1] = tested on: peroxidase; assay: Peroxidase assay in saliva (Amplex Red); assay type: biochemical
Experimental: To determine the effect of various GRAS compounds as inhibitors of peroxidase activity, a standard assay using Amplex® Red (Life Technologies), which releases a fluorescent oxidation product.
The test compounds, such as GRAS materials or cocktails of same, were prepared at a concentration of 500 ppm in distilled water. For the assay, 50 μl samples of test compounds were mixed with 20-30 μl of saliva (either “pooled” or “unpooled”) prior to the addition of Amplex® Red. […] Reactions were allowed to run for 30 minutes during these assays.

[2] = target: T1, α-amylase; assay: α-Amylase inhibition saliva screening (chromogenic substrate, 405 nm); assay type: biochemical; conditions: for Ave (absorbance at 405 nm): average of 4 readings; for absorbance at 405 nm, single reading: test compound prepared at 5,000 ppm, 37° C.
Text: Further details of these five compounds may also be seen in Table 4.

[3] = tested on: protease; conditions: natural protease inhibitors; cited from earlier work
[4] = 500 ppm, pooled and unpooled saliva controls, 30 minutes, FIGS. 26-29

Row | Molecule | peroxidase inhibition [1, 4] | Ave (absorbance at 405 nm) ([2]; Time 0 min) | Ave (absorbance at 405 nm) ([2]; Time 5 min) | Ave (absorbance at 405 nm) ([2]; Time 15 min) | also measured
1 | O=C(O)c1ccccc1 [CDI #16, Benzoic acid] | – | – | – | – | peroxidase inhibition [1]: showed significant peroxidase inhibition capabilities
2 | COc1ccc(O)c(C(C)(C)C)c1 [CDI-039, 3-tert--butyl-hydroxyanisole] | showed significant peroxidase inhibition capabilities | – | – | – | –
3 | Aluminum sulfate hydrate [CDI-34] | – | 0.40 | 0.50 | 0.56 | absorbance at 405 nm, single reading ([2]; Time 0 min, sulfate hydrate): 0.40 and 0.36 and 0.45; absorbance at 405 nm, single reading ([2]; Time 5 min, sulfate hydrate): 0.49 and 0.50 and 0.52; absorbance at 405 nm, single reading ([2]; Time 15 min, sulfate hydrate): 0.53 and 0.61 and 0.54 and 0.56
4 | Cn1c(=O)c2c(ncn2C)n(C)c1=O [CDI #33, Caffeine] | showed significant peroxidase inhibition capabilities | – | – | – | –
5 | Aluminum potassium sulfate dodecahydrate [CDI-42] | showed significant peroxidase inhibition capabilities | 0.92 | 1.85 | 2.29 | absorbance at 405 nm, single reading ([2]; Time 0 min): 0.80 and 1.13 and 0.90 and 0.84; absorbance at 405 nm, single reading ([2]; Time 5 min): 1.65 and 2.15 and 1.80 and 1.81; absorbance at 405 nm, single reading ([2]; Time 15 min): 2.37 and 2.38 and 2.25 and 2.17
6 | B1 | – | – | – | – | Inhibitory power [3]: 1.2 times times weight
